Series [1] is described as follows: Solubility in PBS + 5% DMSO. Conditions: 2 h, room temperature.
In another series the test system is Vero cells. Particulars: read-out: Vero EC50; 48 h exposure, CellTiter-Glo.
For series [2] the following is noted: PAMPA. For orientation: In PAMPA a lipid-coated filter parts donor from acceptor wells.
For another series, the system named is tubulin. Conditions: 10 µM compound; purified tubulin 7.2 µM, GTP, 37°C, 0.5% DMSO.

Where only a bound is given, the exact number is not on record here.

As a reminder, the EC50 is the concentration giving half of the maximal effect.

For `COc1cc2c(c(OC)c1OC)-c1ccc(OC)c(=O)cc1[C@@H](NC(C)=O)CC2` [Colchicine], the Solubility result in series [1] is reported as “highly soluble”.

For the molecule `COc1cc2c(c(OC)c1OC)-c1ccc(OC)c(=O)cc1[C@@H](NC(=O)CCCCCNC(=O)COc1ccc(/C=C/C3=[N+]4C(=Cc5ccc(-c6ccc[nH]6)n5[B-]4(F)F)C=C3)cc1)CC2` [colchicine-646], the concentration giving a half-maximal response (EC50) in the series on Vero cells was greater than 10 µM. Moreover, in series [2], the Permeability is recorded as <10 10^-6 cm/s.

In the case of `CC(=O)O[C@H]1C(=O)[C@@]2(C)[C@H]([C@H](OC(=O)c3ccccc3)[C@]3(O)C[C@H](OC(=O)[C@H](O)[C@@H](NC(=O)c4ccccc4)c4ccccc4)C(C)=C1C3(C)C)[C@]1(OC(C)=O)CO[C@@H]1C[C@@H]2O` [paclitaxel], in the series on tubulin, the “Microtubule formation compared with untreated tubulin” value is recorded as “enhanced”.

The values are drawn from PMC2631555 (Bioorganic & medicinal chemistry letters, 2008).
